For one assay, the system named is E. coli K12. The assay is described as follows: Antibacterial action: growth inhibition of E. coli K12 in LB medium (turbidity). The class given is cell-based. The settings on record: Escherichia coli, Example 10, overnight at 37° C., dilution series 500, 100, 50, 10 and 0 μmol l−1, growth assessed by turbidity, read-out: IC 50 values, E. coli. How it is done:
Antibacterial action of the above-stated compounds 1 to 5
A dilution series comprising the concentrations 500, 100, 50, 10 and 0 μmol 1^−1 of the individual compounds 1 to 5 in LB medium is introduced into 5 culture microtubes in a volume of 0.5 ml. Each of the microtubes was inoculated with 10 μl of an overnight culture of E. coli K12 and shaken overnight at 37° C. Bacterial growth was assessed on the basis of the turbidity of the medium.

In a further assay the test system is Plasmodium falciparum. The assay is described as follows: Antimalarial activity: in vitro Plasmodium falciparum culture, [3H]-hypoxanthine incorporation. The class given is cell-based. Conditions: Example 11, asynchronous blood culture, 48 h + 24 h with [3H]-hypoxanthine, dilution series 100 to 0.14 μmol l−1, IC50 determined by extrapolating, read-out: IC 50 values, Plasmodium falciparum. The method, then:
The antimalarial activity of compounds 1 to 5 was determined using in vitro cultures of the causative organism of malaria, Plasmodium falciparum. 200 μl of an asynchronous Plasmodium falciparum culture with a 0.4% blood parasite content and a haematocrit of 2% were loaded into each of the wells of a 96 well microtitre plate. A serial dilution series of the compounds was then prepared in steps of three between concentrations of 100 and 0.14 μmol 1^−1. The plates are incubated at 37° C., 3% CO2 and 5% O2 over a period of 48 hours. 30 μl of medium supplemented with 27 ηCi ml^−1 of [^3H]-hypoxanthine were then added to each well. After 24 hours' incubation, the parasites were harvested by filtration through glass fibre filters and the incorporated radioactivity was measured. Inhibition of parasite growth was measured as the percentage inhibition of tritium incorporation relative to a comparison without the substance. The median inhibitory concentration (IC50) of the substance was determined by extrapolating the values.

Like-named read-outs stand apart in the source and are kept apart here.

For `CC(=O)C(C)(NO)C(CCc1ccccn1)CP(=O)(O)O` (stereo not shown) [Compound 4, 3-acetyl-3-(N-hydroxylamino)-3-methyl-2-[2-(2-pyridyl)ethyl]propylphosphonic acid], the IC50 with E. coli K12 is 736000 nM; in the assay on Plasmodium falciparum (Plasmodium falciparum), 375 nM.

On to `CC(=O)C(C)(NO)C(CCc1ccccc1)CP(=O)(O)O` (stereo not shown) [Compound 3, 3-acetyl-3-(N-hydroxylamino)-3-methyl-2-(2-phenylethyl)propylphosphonic acid], for which the IC50 in the assay on E. coli K12 is 762000 nM; in the assay with Plasmodium falciparum (Plasmodium falciparum) it was 405 nM.

Consider `CC(=O)N(O)C(CCC1CCCCC1)CCP(=O)(O)O` (stereo not shown) [Compound 2, 3-N-Acetyl-3-N-(hydroxylamino)-5-cyclohexyl-pentylphosphonic acid], for which the IC50 with Plasmodium falciparum was 157 nM.

Turning to `CC(=O)N(O)C(CCc1ccccc1)CCP(=O)(O)O` (stereo not shown) [Compound 1, 3-N-Acetyl-3-N-(hydroxylamino)-5-phenylpentylphosphonic acid], in the assay with Plasmodium falciparum, the IC50 is 215 nM.

With “3-acetyl-3-(N-hydroxylamino)-3-methyl-[2-(3-pyridyl)ethyl]propylphosphonic acid [Compound 5]”, the IC50 in the assay on Plasmodium falciparum is 183 nM.

(Values after patent US6534489B1, “Organophosphorus compounds and the use thereof” (Jomaa Pharmaka GmbH, priority 1998, dated 2003).)
